# Like-named read-outs stand apart in the source and are kept apart here.
# Assays:
# ABCB1/MDR1/Pgp [1] = target: T1, ABCB1/MDR1/Pgp (Homo sapiens, UniProt P08183); conditions: read-out: Estimated Transporter Inhibition IC50, ABCB1 vesicular assay; ATP-dependent NMQ uptake, HEK-293/ABCB1 inverted membrane vesicles; '-' = no inhibition
# ABCB1/MDR1/Pgp [2] = target: T1, ABCB1/MDR1/Pgp; test: in vitro; conditions: read-out: Estimated Transporter Inhibition IC50, ABCB1 cellular assay; Calcein-AM extrusion, PLB-985/ABCB1 cells; relative to full inhibition by 0.25 µM tariquidar; '-' = no significant inhibition
# Description: (§1) For the ABC transporter assays, we used both cell-based and membrane-based functional assays. […] The respective transport activities were assayed by measuring the cellular fluorescence of the respective transported substrates Phengreen (ABCG2) and Calcein (ABCB1 and ABCC1).
# The cells were kept on ice until the flow cytometry measurements. All experiments were performed in triplicate and in at least three biological parallels.
# (§2) The cells were kept on ice until the flow cytometry measurements. All experiments were performed in triplicate and in at least three biological parallels. […] The PhenGreen (PG) or Calcein signal was detected in the BL1 channel (emission filter: 530/30 nm). Analysis of the data was carried out by the Attune Nxt Cytometer Software v3.1.2 (Thermo Fischer Scientific, Waltham, MA, USA). The inhibition of transporter activity was calculated by comparing the fluorescence in the presence of the test compound to that in the presence of a specific inhibitor providing maximum inhibition. […] Half-maximum inhibition (IC50) values were calculated by using the Origin2019 software (9.6.5.169, OriginLab Corporation, Northampton, MA, USA). […] In these experiments, we measured Hoechst dye extrusion in HeLa cells stably expressing eGFP and the ABCG2 variants driven by the same promoter—the transgenic cells generated by the Sleeping Beauty transposon system. […] For details, see Zámbó et al.). […] The maximum inhibition was defined for each variant as the fluorescence difference of the samples incubated with and without Ko143, respectively. […] Data analysis was performed using the Attune Nxt Cytometer Software v3.1.2. Two samples per condition and three biological replicates were examined in each experiment.
# ABCB1 is a high-affinity active efflux transporter of the viability dye Calcein-AM (CaAM). […] Here, we applied this widely used cellular assay (see https://www.solvobiotech.com/services/categories/dye-efflux-assays) to characterize drug interactions of the applied compounds in intact PLB-985 cells, expressing high levels of the ABCB1 protein.
# ABCG2/BCRP [3] = target: T2, ABCG2/BCRP (Homo sapiens, UniProt Q9UNQ0); test: in vitro; conditions: read-out: Estimated Transporter Inhibition IC50, ABCG2 cellular assay; PhenGreen-DA extrusion, PLB-985/ABCG2 cells; relative to 2.5 µM Ko143; '-' = no inhibition
# T2 sequence (Q9UNQ0 1-655): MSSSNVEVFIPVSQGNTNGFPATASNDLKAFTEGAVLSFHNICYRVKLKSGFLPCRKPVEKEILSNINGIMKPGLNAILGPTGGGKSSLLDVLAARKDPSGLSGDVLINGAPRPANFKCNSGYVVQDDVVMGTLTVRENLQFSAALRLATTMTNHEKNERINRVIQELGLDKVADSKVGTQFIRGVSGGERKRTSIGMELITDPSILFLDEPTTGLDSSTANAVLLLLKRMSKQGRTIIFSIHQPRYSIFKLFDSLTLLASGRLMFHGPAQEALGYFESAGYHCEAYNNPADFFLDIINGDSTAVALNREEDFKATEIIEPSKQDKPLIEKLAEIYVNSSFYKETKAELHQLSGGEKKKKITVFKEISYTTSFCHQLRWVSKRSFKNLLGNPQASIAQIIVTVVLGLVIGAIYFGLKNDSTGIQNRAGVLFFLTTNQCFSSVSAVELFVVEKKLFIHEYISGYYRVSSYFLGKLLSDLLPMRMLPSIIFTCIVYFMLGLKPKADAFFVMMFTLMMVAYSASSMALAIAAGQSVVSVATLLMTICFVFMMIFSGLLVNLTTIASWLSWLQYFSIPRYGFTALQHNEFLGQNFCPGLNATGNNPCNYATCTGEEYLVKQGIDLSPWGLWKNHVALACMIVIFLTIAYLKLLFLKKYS
# Description: as §1, §2
# Here, we used both PhenGreen-SK diacetate and Hst dye for these measurements. The PhenGreen (PG) assay is a recently patented method applied for ensuring an efficient ABCG2 transport measurement, as the non-fluorescent PhenGreen diacetate (PG-DA) is actively extruded by ABCG2 and the cellular fluorescence is correlated with ABCG2 transport activity. Therefore, we applied this assay to characterize the test drug interactions in intact PLB-985 cells expressing high levels of the ABCG2 protein. […] ABCG2 inhibition by the test compounds was estimated by their relative (%) inhibition compared to full inhibition by Ko143.
# OATP2B1 [4] = system: OATP2B1; design: method as in PMID 22541068; conditions: 20 µM ivermectin, different test substrate; cited from earlier work
# SARS-CoV-2 = conditions: cited from earlier work
# ABCG2/BCRP [5] = target: T2, ABCG2/BCRP; test: in vitro; conditions: read-out: Estimated Transporter Inhibition IC50, ABCG2 vesicular assay; ATP-dependent lucifer yellow uptake, HEK-293/ABCG2 vesicles; relative to 1 µM Ko143; '-' = no inhibition
# Description: These were employed at 37 °C for 10 min (ABCG2), 1 min (ABCB1), or 3 min (ABCC1), with or without 4 mM Mg-ATP, in a 50 μL final volume. The known reference inhibitors of the transporters (1 µM Ko143 for ABCG2, 1 µM Valspodar for ABCB1, and 200 µM Benzbromarone for ABCC1) served as controls. Each test compound was dissolved in DMSO and a 1 µL volume was added to the samples. After incubation, the samples were filtered and washed, and the substrates in the vesicles were dissolved in 10% SDS and transferred onto another plate. After the addition of a stabilizer, the fluorescence was measured in plate readers (Victor X3 and Enspire Perkin-Elmer, Waltham, MA, USA), while the activity of the radiolabeled substrate was measured by liquid scintillation counting (Perkin Elmer MicroBeta2 liquid scintillation counter, Perkin Elmer, Waltham, MA, USA). ABC transporter-related vesicular transport was calculated by subtracting uptake measured in the presence of Mg-AMP from the values measured in the presence of Mg-ATP.
# The effects of the test compounds on ABCG2 activity were also measured in a vesicular transport assay by using inverted membrane vesicles prepared from HEK-293 cells expressing high levels of the ABCG2 transporter.
# OATP2B1 [6] = target: T3, OATP2B1 (Homo sapiens, UniProt O94956); conditions: read-out: Estimated Transporter Inhibition IC50, OATP2B1 cellular assay; 20 µM pyranine uptake, 15 min, pH 5.5, A431-OATP2B1 cells; '-' = no interaction
# T3 sequence (O94956 1-709): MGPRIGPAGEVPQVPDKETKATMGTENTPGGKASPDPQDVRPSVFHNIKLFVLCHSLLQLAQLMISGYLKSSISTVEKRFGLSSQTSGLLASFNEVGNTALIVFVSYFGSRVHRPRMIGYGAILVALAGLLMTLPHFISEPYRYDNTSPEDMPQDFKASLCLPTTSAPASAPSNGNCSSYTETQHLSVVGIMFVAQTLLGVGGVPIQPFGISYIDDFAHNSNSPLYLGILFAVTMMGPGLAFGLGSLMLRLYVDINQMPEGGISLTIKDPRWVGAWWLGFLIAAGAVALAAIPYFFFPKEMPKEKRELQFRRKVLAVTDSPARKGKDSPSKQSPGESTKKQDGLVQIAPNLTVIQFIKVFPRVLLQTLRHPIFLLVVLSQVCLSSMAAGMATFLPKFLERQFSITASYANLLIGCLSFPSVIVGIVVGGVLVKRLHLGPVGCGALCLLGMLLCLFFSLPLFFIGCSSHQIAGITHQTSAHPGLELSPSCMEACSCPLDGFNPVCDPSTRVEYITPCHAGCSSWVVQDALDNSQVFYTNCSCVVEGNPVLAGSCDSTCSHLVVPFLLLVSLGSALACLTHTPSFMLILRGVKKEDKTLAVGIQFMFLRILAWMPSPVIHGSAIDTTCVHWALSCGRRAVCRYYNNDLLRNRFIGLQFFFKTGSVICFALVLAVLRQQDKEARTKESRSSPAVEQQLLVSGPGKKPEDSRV
# T1 sequence (P08183 whole entry): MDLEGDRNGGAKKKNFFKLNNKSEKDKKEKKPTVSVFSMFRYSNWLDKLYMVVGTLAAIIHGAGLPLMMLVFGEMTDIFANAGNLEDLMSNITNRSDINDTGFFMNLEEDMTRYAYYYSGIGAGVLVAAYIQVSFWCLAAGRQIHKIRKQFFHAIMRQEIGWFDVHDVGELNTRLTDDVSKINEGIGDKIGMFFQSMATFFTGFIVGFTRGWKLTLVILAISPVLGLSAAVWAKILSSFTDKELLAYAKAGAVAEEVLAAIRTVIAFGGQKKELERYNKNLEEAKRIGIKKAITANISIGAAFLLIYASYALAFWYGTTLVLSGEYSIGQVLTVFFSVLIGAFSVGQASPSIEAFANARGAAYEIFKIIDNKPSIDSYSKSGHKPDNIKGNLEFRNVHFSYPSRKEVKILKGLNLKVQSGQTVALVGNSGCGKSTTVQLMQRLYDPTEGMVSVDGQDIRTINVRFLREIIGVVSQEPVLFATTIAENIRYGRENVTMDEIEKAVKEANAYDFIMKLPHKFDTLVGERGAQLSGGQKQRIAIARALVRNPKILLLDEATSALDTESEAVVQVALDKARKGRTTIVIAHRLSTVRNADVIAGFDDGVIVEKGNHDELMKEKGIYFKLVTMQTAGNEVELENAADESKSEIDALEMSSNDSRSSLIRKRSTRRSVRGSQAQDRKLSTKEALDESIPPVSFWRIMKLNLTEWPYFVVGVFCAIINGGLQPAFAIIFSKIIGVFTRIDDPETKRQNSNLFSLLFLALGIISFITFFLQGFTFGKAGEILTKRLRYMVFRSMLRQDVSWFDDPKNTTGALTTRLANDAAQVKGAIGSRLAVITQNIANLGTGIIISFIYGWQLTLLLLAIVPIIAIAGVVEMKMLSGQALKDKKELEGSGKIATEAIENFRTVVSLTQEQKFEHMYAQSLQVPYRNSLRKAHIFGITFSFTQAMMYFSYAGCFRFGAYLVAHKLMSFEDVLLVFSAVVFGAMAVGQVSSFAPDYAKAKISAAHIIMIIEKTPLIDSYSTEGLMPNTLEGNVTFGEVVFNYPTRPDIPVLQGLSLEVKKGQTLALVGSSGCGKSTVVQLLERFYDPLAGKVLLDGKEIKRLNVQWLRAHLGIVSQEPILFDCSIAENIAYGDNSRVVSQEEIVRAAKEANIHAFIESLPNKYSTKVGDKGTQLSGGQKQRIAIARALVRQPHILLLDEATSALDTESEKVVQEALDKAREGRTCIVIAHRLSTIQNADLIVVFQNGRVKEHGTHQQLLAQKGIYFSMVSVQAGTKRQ
substance,measurement,setting,value
ivermectin,IC50,ABCB1/MDR1/Pgp [1],300 nM
same,IC50,ABCB1/MDR1/Pgp [2],600 nM
same,IC50,ABCG2/BCRP [3],3100 nM
same,OATP2B1 inhibition found by Karlgren et al.,OATP2B1 [4],39%
same,Plasma concentrations required to reach an in vitro antiviral efficacy,SARS-CoV-2,2 to 10 µM
same,IC50,ABCG2/BCRP [5],1100 nM
same,IC50,OATP2B1 [6],8600 nM
